The source made the active and inactive calls. The rule behind the calls is not given here.
Legend:
[1] = test system: PC-12; assay: Neuroprotective activity against glutamate induced excitotoxicity in rat PC12 cells assessed as cell survival at 160 uM pretreated with glutamate for 24 hrs followed by compound addition and measured after 24 hrs; assay type: functional; details: read-out: Survival
[2] = test system: PC-12; assay: Neuroprotective activity in rat PC12 cells assessed as protection against glutamate induced excitotoxicity at 160 uM pretreated with glutamate for 24 hrs followed by compound addition and measured after 24 hrs; assay type: functional
[3] = test system: PC-12; assay: Cytotoxicity against rat PC12 cells assessed as reduction in cell viability incubated for 24 hrs by MTT assay; assay type: functional, cell-based; details: for IC50: PC-12, 24 h
[4] = test system: PC-12; assay: Neuroprotective activity against glutamate induced excitotoxicity in rat PC12 cells pretreated with glutamate for 24 hrs followed by compound addition and measured after 24 hrs; assay type: functional, cell-based
[5] = test system: PC-12; assay: Neuroprotective activity against H2O2-induced oxidative damage in rat PC12 cells pretreated with H2O2 for 24 hrs followed by compound addition and measured after 24 hrs; assay type: functional, cell-based
[6] = test system: PC-12; assay: Neuroprotective activity against glutamate induced excitotoxicity in rat PC12 cells assessed as cell survival at 20 uM pretreated with glutamate for 24 hrs followed by compound addition and measured after 24 hrs; assay type: functional; details: read-out: Survival
[7] = test system: PC-12; assay: Neuroprotective activity against H2O2-induced oxidative damage in rat PC12 cells at 20 uM pretreated with H2O2 for 24 hrs followed by compound addition and measured after 24 hrs; assay type: functional
[8] = test system: PC-12; assay: Neuroprotective activity against H2O2-induced oxidative damage in rat PC12 cells assessed as increase in cell survival at 20 uM pretreated with H2O2 for 24 hrs followed by compound addition and measured after 24 hrs; assay type: functional; details: read-out: Survival
[9] = test system: PC-12; assay: Neuroprotective activity in rat PC12 cells assessed as protection against glutamate induced excitotoxicity at 20 uM pretreated with glutamate for 24 hrs followed by compound addition and measured after 24 hrs; assay type: functional
[10] = test system: Rattus norvegicus; assay: Neuroprotective activity against middle cerebral artery occlusion induced ischemia stroke Sprague-Dawley rat model assessed as Zea-longa score at 20 mg/kg, po measured after 24 hrs (reference value: 2.17+/- 0.37); assay type: functional
[11] = test system: Rattus norvegicus; assay: Neuroprotective activity against middle cerebral artery occlusion induced ischemia stroke Sprague-Dawley rat model assessed as decrease in cerebral infarction area at 60 mg/kg, ip measured after 24 hrs by TTC staining based microscopic assay (reference value: 15.91 +/- 9.06 %); assay type: functional; design: scale not given: the % may be the effect or the level left
[12] = test system: Rattus norvegicus; assay: Neuroprotective activity against middle cerebral artery occlusion induced ischemia stroke Sprague-Dawley rat model assessed as decrease in brain water content at 60 mg/kg, ip measured after 24 hrs (reference value: 83.17 +/- 2.40%); assay type: functional; design: scale not given: the % may be the effect or the level left
[13] = test system: Rattus norvegicus; assay: Neuroprotective activity against middle cerebral artery occlusion induced ischemia stroke Sprague-Dawley rat model assessed as […] in serum MDA level at 20 to 60 mg/kg, ip measured after 24 hrs; assay type: functional, organism-based; details: dose 20-60 mg/kg
[14] = test system: Rattus norvegicus; assay: Neuroprotective activity against middle cerebral artery occlusion induced ischemia stroke Sprague-Dawley rat model assessed as increase in serum SOD level at 20 to 60 mg/kg, ip measured after 24 hrs; assay type: functional, organism-based; details: dose 20-60 mg/kg
[15] = Acute toxicity in Sprague-Dawley rat assessed as animal death at 4000 mg/kg, po measured for 24 hrs; assay type: organism-based; details: in vivo
[16] = test system: Rattus norvegicus; assay: Neuroprotective activity against middle cerebral artery occlusion induced ischemia stroke Sprague-Dawley rat model assessed as reduction in TNF-alpha level in serum at 20 to 60 mg/kg, ip measured after 24 hrs by ELISA analysis; assay type: functional, organism-based; details: dose 20-60 mg/kg
[17] = test system: Rattus norvegicus; assay: Neuroprotective activity against middle cerebral artery occlusion induced ischemia stroke Sprague-Dawley rat model assessed as reduction in IL-1beta level in serum at 20 to 60 mg/kg, ip measured after 24 hrs by ELISA analysis; assay type: functional, organism-based; details: dose 20-60 mg/kg
[18] = test system: Rattus norvegicus; assay: Neuroprotective activity against middle cerebral artery occlusion induced ischemia stroke Sprague-Dawley rat model assessed as Zea-longa score at 60 mg/kg, po measured after 24 hrs (reference value: 2.33 +/- 0.47); assay type: functional
[19] = test system: PC-12; assay: Cytotoxicity against rat PC12 cells assessed as reduction in cell viability at 80 uM incubated for 24 hrs by MTT assay; assay type: functional
[20] = test system: PC-12; assay: Neuroprotective activity against glutamate induced excitotoxicity in rat PC12 cells assessed as cell survival at 25 uM pretreated with glutamate for 24 hrs followed by compound addition and measured after 24 hrs; assay type: functional; details: read-out: Survival

CC12CC3CC(C)(C1)CC(N)(C3)C2 [MEMANTINE]
viability at 160 µM [1]: 63% | Activity [2]: 46.85%

COc1c(OC(=O)N(C)c2ccccc2)cc2oc3c(CN4CCN(C)CC4)c4c(c(O)c3c(=O)c2c1CC=C(C)C)C=CC(C)(C)O4
Activity [3]: Active

COc1c(OC(=O)N(C)c2ccc(F)cc2)cc2oc3cc4c(c(O)c3c(=O)c2c1CC=C(C)C)C=CC(C)(C)O4
EC50 [4]: 21.3 µM | EC50 [5]: 28.8 µM | viability at 20 µM [6]: 67.2% | Activity [7]: 43.32% | viability at 20 µM [8]: 74.7% | Activity [9]: 52.82%

CCCCC1OC(=O)c2ccccc21 (stereo not drawn) [RAC-3-N-BUTYLPHTHALIDE]
Activity [10]: 1.33 | Activity [11]: 1.64% | Activity [12]: 82.2%

COc1c(OC(=O)N(C)c2ccccc2)cc2oc3cc4c(c(O)c3c(=O)c2c1CC=C(C)C)C=CC(C)(C)O4
EC50 [4]: 16.1 µM | Activity [13]: Active | Activity [14]: Active | Activity [15]: Non-Toxic | Activity [16]: Active | Activity [17]: Active | EC50 [5]: 19.3 µM | viability at 20 µM [6]: 68.6% | IC50 [3]: 3.3 µM | Activity [18]: 1.67 | Activity [7]: 52.62% | Activity [19]: inactive | Activity [11]: 1.78% | viability at 20 µM [8]: 78.9% | Activity [12]: 77.41% | Activity [9]: 54.79%

N[C@@H](CCC(=O)O)C(=O)O [GLUTAMIC ACID]
viability at 25 µM [20]: 30.5%

COc1c(OC(=O)N(C)c2ccccc2)cc2oc3c(CN(C)C)c4c(c(O)c3c(=O)c2c1CC=C(C)C)C=CC(C)(C)O4
IC50 [3]: 5 µM | Activity [19]: 90%

COc1c(OC(=O)N(CC2CC2)c2ccccc2)cc2oc3cc4c(c(O)c3c(=O)c2c1CC=C(C)C)C=CC(C)(C)O4
EC50 [4]: 20.9 µM | EC50 [5]: 29.2 µM | viability at 20 µM [6]: 68% | Activity [7]: 42.11% | viability at 20 µM [8]: 74.2% | Activity [9]: 53.91%

From ChEMBL document CHEMBL5346922, “Discovery of phenylcarbamoyl xanthone derivatives as potent neuroprotective agents for treating ischemic stroke” (Eur J Med Chem, 2023)
